US20150133297A1, “NEW ANTIFUNGAL COMPOSITIONS” (DSM IP ASSETS B.V., priority 2012, published 2015)
“And” between values parts separate entries of the source, which are not always exact repeats. Equal values may be shown once.

Columns and labels:
Penicillium italicum = experiment: Treatment of oranges (Examples 6-9): wounded, inoculated, wound treated with antifungal composition; assay type: in vivo; settings: for Observed antifungal activity O (%): oranges, 20° C.
Experimental: During incubation, mould growth on the strawberries was assessed in a twofold manner: (i) the number of moulded strawberries per total of 12 strawberries was counted; and (ii) the antifungal activity (in %) of the individual and combined active ingredients was determined by calculating the reduction in mould growth observed on the strawberries treated with the antifungal composition in comparison to the mould growth on the strawberries treated with the control composition. The expected antifungal activity (E in %) of the combined antifungal composition comprising both active ingredients was calculated according to the Colby equation (Colby, 1967): […]
Eight fresh, organic oranges were used per treatment. Each orange was soaked in a 180 ppm hypochlorite solution for 10 minutes, then rinsed thoroughly with fresh tap water and dried. The peel of each disinfected orange was wounded once using a cork borer according to the method described by de Lapeyre de Bellaire and Dubois (1987). Subsequently, each wound was inoculated with 10 μl of a Penicillium italicum suspension containing 5×10^5 of spores/ml. After incubation for 3 hours at 20° C., each wound and the orange peel area of 1 cm around the wound was treated with in total 150 μl of a freshly prepared aqueous antifungal composition comprising either 500 ppm natamycin (DSM Food Specialties, Delft, The Netherlands), 500 ppm fenpropidin or both. Each antifungal composition also comprised 3.2% (w/w) beeswax, 0.8% (w/w) glycerol, 0.7% (w/w) polyoxyethylene sorbitan monostearate (Tween 60), 0.1% (w/w) polyoxyethylene sorbitan monooleate (Tween 80), 0.05% (w/w) methylhydroxyethyl-cellulose (MHEC), 0.03% (w/w) anti-foaming agent, 0.02% (w/w) xanthan gum, 0.02% (w/w) citric acid, 0.01% (w/w) lactic acid and 0.01% potassium sorbate. A composition without natamycin or fenpropidin was used as control. […] The treated oranges were incubated in a closed box in the dark at 20° C. and assessed on mould growth during a 28-day incubation period. The antifungal activity (in %) of the individual and combined active ingredients was determined by calculating the reduction in mould growth observed on the oranges treated with the antifungal composition in comparison to the mould growth on the oranges treated with the control composition according to the Colby method (Colby, 1967) as described in Example 5.
The experiment was conducted as described in Example 6, except for the fact that each wounded and inoculated orange was treated with 150 μl of a freshly prepared aqueous antifungal composition comprising either 250 ppm natamycin (DSM Food Specialties, Delft, The Netherlands), 250 ppm fenpropidin or both. During the 26-day incubation period, the treated oranges were assessed on mould growth according to the two methods described in Example 5.
The experiment was conducted as described in Example 6, except for the fact that each wounded and inoculated orange was treated with 150 μl of a freshly prepared aqueous antifungal composition comprising either 500 ppm natamycin (DSM Food Specialties, Delft, The Netherlands), 400 ppm spiroxamine or both. During the 26-day incubation period, the treated oranges were assessed on mould growth according to the two methods described in Example 5.
The experiment was conducted as described in Example 6, except for the fact that each wounded and inoculated orange was treated with 150 μl of a freshly prepared aqueous antifungal composition comprising either 250 ppm natamycin (DSM Food Specialties, Delft, The Netherlands), 200 ppm spiroxamine or both. During the 26-day incubation period, the treated oranges were assessed on mould growth according to the two methods described in Example 5.

Botrytis cinerea = experiment: Treatment of strawberries (Example 5): wounded, inoculated, dipped in antifungal composition; assay type: in vivo; settings: 500 ppm natamycin, 600 ppm fenpropidin or both
Experimental: Twelve fresh, organic strawberries were used per treatment. Each strawberry was wounded with a 0.5 mm long cut and each wound was inoculated with 10 μl of a Botrytis cinerea suspension containing 1×10^5 of spores/ml. […] A composition without natamycin or fenpropidin was used as control. […] The treated strawberries were incubated in a closed box in the dark at 20° C. for 9 days. During incubation, mould growth on the strawberries was assessed in a twofold manner: […] The expected antifungal activity (E in %) of the combined antifungal composition comprising both active ingredients was calculated according to the Colby equation (Colby, 1967): […] wherein X and Y are the observed antifungal activities (in %) of the individual active ingredients X and Y, respectively.

C[C@@H]1C/C=C/C=C/C=C/C=C/[C@H](O[C@@H]2O[C@H](C)[C@@H](O)[C@H](N)[C@@H]2O)C[C@@H]2O[C@](O)(C[C@@H](O)C[C@H]3O[C@@H]3/C=C/C(=O)O1)C[C@H](O)[C@H]2C(=O)O [Natamycin, natamycin]
Number of moulded oranges/total number of 8 oranges (Penicillium italicum; Day 11, 20° C., 250 ppm natamycin, 200 ppm spiroxamine or both): 5 and 5/8
Number of moulded oranges/total number of 8 oranges (Penicillium italicum; Day 12, 20° C., 250 ppm natamycin, 200 ppm spiroxamine or both): 5 and 5/8
Number of moulded oranges/total number of 8 oranges (Penicillium italicum; Day 13, 20° C., 250 ppm natamycin, 200 ppm spiroxamine or both): 5/8
Number of moulded oranges/total number of 8 oranges (Penicillium italicum; Day 14-15, 20° C., 250 ppm natamycin, 200 ppm spiroxamine or both): 6/8
Number of moulded oranges/total number of 8 oranges (Penicillium italicum; Day 14-16, 20° C., 500 ppm natamycin, 400 ppm spiroxamine or both): 5/8
Number of moulded oranges/total number of 8 oranges (Penicillium italicum; Day 16, 20° C., 250 ppm natamycin, 200 ppm spiroxamine or both): 6 and 6/8
Number of moulded oranges/total number of 8 oranges (Penicillium italicum; Day 18, 20° C., 250 ppm natamycin, 200 ppm spiroxamine or both): 6 and 6/8
Number of moulded oranges/total number of 8 oranges (Penicillium italicum; Day 18, 20° C., 250 ppm natamycin, 250 ppm fenpropidin or both): 6/8
Number of moulded oranges/total number of 8 oranges (Penicillium italicum; Day 18, 20° C., 500 ppm natamycin, 400 ppm spiroxamine or both): 6/8
Number of moulded oranges/total number of 8 oranges (Penicillium italicum; Day 19, 20° C., 250 ppm natamycin, 250 ppm fenpropidin or both): 7/8
Number of moulded oranges/total number of 8 oranges (Penicillium italicum; Day 19-21, 20° C., 500 ppm natamycin, 400 ppm spiroxamine or both): 6 and 6/8
Number of moulded oranges/total number of 8 oranges (Penicillium italicum; Day 19-25, 20° C., 250 ppm natamycin, 200 ppm spiroxamine or both): 7/8
Number of moulded oranges/total number of 8 oranges (Penicillium italicum; Day 20, 20° C., 250 ppm natamycin, 250 ppm fenpropidin or both): 7/8
Number of moulded oranges/total number of 8 oranges (Penicillium italicum; Day 21-22, 20° C., 250 ppm natamycin, 250 ppm fenpropidin or both): 7 and 7/8
Number of moulded oranges/total number of 8 oranges (Penicillium italicum; Day 22-23, 20° C., 500 ppm natamycin, 400 ppm spiroxamine or both): 6 and 6/8
Number of moulded oranges/total number of 8 oranges (Penicillium italicum; Day 23-26, 20° C., 250 ppm natamycin, 250 ppm fenpropidin or both): 7 and 7/8
Number of moulded oranges/total number of 8 oranges (Penicillium italicum; Day 26, 20° C., 250 ppm natamycin, 200 ppm spiroxamine or both): 7/8
moulded oranges of the 8 oranges (Penicillium italicum; days 19 through 26, 250 ppm natamycin, 200 ppm spiroxamine or both): 7
Observed antifungal activity O (%) (Penicillium italicum; day 11, 250 ppm natamycin, 200 ppm spiroxamine or both): 80%
Observed antifungal activity O (%) (Penicillium italicum; day 12, 250 ppm natamycin, 200 ppm spiroxamine or both): 73%
Observed antifungal activity O (%) (Penicillium italicum; day 13, 250 ppm natamycin, 200 ppm spiroxamine or both): 63%
Observed antifungal activity O (%) (Penicillium italicum; day 14, 250 ppm natamycin, 200 ppm spiroxamine or both): 50%
Observed antifungal activity O (%) (Penicillium italicum; day 15, 250 ppm natamycin, 200 ppm spiroxamine or both): 46%
Observed antifungal activity O (%) (Penicillium italicum; day 16, 250 ppm natamycin, 200 ppm spiroxamine or both): 43%
Observed antifungal activity O (%) (Penicillium italicum; day 18, 250 ppm natamycin, 200 ppm spiroxamine or both): 41%
Observed antifungal activity O (%) (Penicillium italicum; day 18, 250 ppm natamycin, 250 ppm fenpropidin or both): 41%
Observed antifungal activity O (%) (Penicillium italicum; day 18, 500 ppm natamycin, 400 ppm spiroxamine or both): 32%
Observed antifungal activity O (%) (Penicillium italicum; day 19, 250 ppm natamycin, 200 ppm spiroxamine or both): 36%
Observed antifungal activity O (%) (Penicillium italicum; day 19, 250 ppm natamycin, 250 ppm fenpropidin or both): 36%
Observed antifungal activity O (%) (Penicillium italicum; day 19, 500 ppm natamycin, 400 ppm spiroxamine or both): 29%
Observed antifungal activity O (%) (Penicillium italicum; day 20, 250 ppm natamycin, 200 ppm spiroxamine or both): 34%
Observed antifungal activity O (%) (Penicillium italicum; day 20, 250 ppm natamycin, 250 ppm fenpropidin or both): 34%
Observed antifungal activity O (%) (Penicillium italicum; day 20, 500 ppm natamycin, 400 ppm spiroxamine or both): 20%
Observed antifungal activity O (%) (Penicillium italicum; day 21, 250 ppm natamycin, 200 ppm spiroxamine or both): 32%
Observed antifungal activity O (%) (Penicillium italicum; day 21, 250 ppm natamycin, 250 ppm fenpropidin or both): 32%
Observed antifungal activity O (%) (Penicillium italicum; day 21, 500 ppm natamycin, 400 ppm spiroxamine or both): 16%
Observed antifungal activity O (%) (Penicillium italicum; day 22, 250 ppm natamycin, 200 ppm spiroxamine or both): 29%
Observed antifungal activity O (%) (Penicillium italicum; day 22, 250 ppm natamycin, 250 ppm fenpropidin or both): 29%
Observed antifungal activity O (%) (Penicillium italicum; day 22, 500 ppm natamycin, 400 ppm spiroxamine or both): 14%
Observed antifungal activity O (%) (Penicillium italicum; day 22, 500 ppm natamycin, 500 ppm fenpropidin or both): 14%
Observed antifungal activity O (%) (Penicillium italicum; day 23, 250 ppm natamycin, 200 ppm spiroxamine or both): 25%
Observed antifungal activity O (%) (Penicillium italicum; day 23, 250 ppm natamycin, 250 ppm fenpropidin or both): 25%
Observed antifungal activity O (%) (Penicillium italicum; day 23, 500 ppm natamycin, 400 ppm spiroxamine or both): 14%
Observed antifungal activity O (%) (Penicillium italicum; day 23, 500 ppm natamycin, 500 ppm fenpropidin or both): 14%
Observed antifungal activity O (%) (Penicillium italicum; day 25-26, 500 ppm natamycin, 400 ppm spiroxamine or both): 14%
Observed antifungal activity O (%) (Penicillium italicum; day 25, 250 ppm natamycin, 200 ppm spiroxamine or both): 19%
Observed antifungal activity O (%) (Penicillium italicum; day 25, 250 ppm natamycin, 250 ppm fenpropidin or both): 19%
Observed antifungal activity O (%) (Penicillium italicum; day 25, 500 ppm natamycin, 500 ppm fenpropidin or both): 14%
Observed antifungal activity O (%) (Penicillium italicum; day 26, 250 ppm natamycin, 200 ppm spiroxamine or both): 17%
Observed antifungal activity O (%) (Penicillium italicum; day 26, 250 ppm natamycin, 250 ppm fenpropidin or both): 17%
Observed antifungal activity O (%) (Penicillium italicum; day 26, 500 ppm natamycin, 500 ppm fenpropidin or both): 14%
Observed antifungal activity O (%) (Penicillium italicum; day 27, 500 ppm natamycin, 500 ppm fenpropidin or both): 14%
Observed antifungal activity O (%) (Penicillium italicum; day 28, 500 ppm natamycin, 500 ppm fenpropidin or both): 14%
Number of moulded strawberries/total number of 12 strawberries (Botrytis cinerea; Day 5, 20° C.): 11
Number of moulded strawberries/total number of 12 strawberries (Botrytis cinerea; Day 6, 20° C.): 12
